Assay results taken from ChEMBL document CHEMBL1201862, “PubChem BioAssay data set” (2004).
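Dose response: 5 concentrations. Exposure: 48 h. Format: 96-well plates. Endpoint: linear interpolation; highest concentration if not reached. GI50 = concentration required for 50% inhibition of growth.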 Calls of active or inactive are those of the source. Cut-off read from the data, not from the text of the source: active = GI50 up to about 1.1 µM and inactive = higher.

What was measured:
Assay in all cases: DTP human tumour cell line panel, 48 h
SNB-75 = system: SNB-75
HCC 2998 = system: HCC 2998
HT-29 = system: HT-29
DLD-1 = system: DLD-1
COLO 205 = system: COLO 205
U-251 = system: U-251
TK-10 = system: TK-10
NCI-H522 = system: NCI-H522
786-0 = system: 786-0
IGROV-1 = system: IGROV-1
HOP-62 = system: HOP-62
NCI-H23 = system: NCI-H23
HCT-15 = system: HCT-15
OVCAR-8 = system: OVCAR-8
RPMI-8226 = system: RPMI-8226
SK-MEL-2 = system: SK-MEL-2
CCRF-CEM = system: CCRF-CEM

SMILES | GI50 (SNB-75) | GI50 (HCC 2998) | GI50 (HT-29) | GI50 (DLD-1) | GI50 (COLO 205) | GI50 (U-251) | GI50 (TK-10) | GI50 (NCI-H522) | GI50 (786-0) | GI50 (IGROV-1) | GI50 (HOP-62) | GI50 (NCI-H23) | GI50 (HCT-15) | GI50 (OVCAR-8) | GI50 (RPMI-8226) | GI50 (SK-MEL-2) | GI50 (CCRF-CEM)
Cc1ccc(OCC(=O)N2N=C(c3ccccc3)CC2(O)c2ccccc2)cc1 (configuration not stated) | 55.3 µM (inactive) | > 100 µM (inactive) | > 10 µM (inactive) | 27.9 µM (inactive) | 28.2 µM (inactive) | 13 µM (inactive) | > 100 µM (inactive) | > 100 µM (inactive) | 16.4 µM (inactive) | 39.4 µM (inactive) | 27.8 µM (inactive) | 22.6 µM (inactive) | > 100 µM | 91.2 µM (inactive) | 16.6 µM (inactive) | > 100 µM (inactive) | 
COC1=CC(=O)NCCN1 | > 100 µM (inactive) | > 100 µM (inactive) | > 100 µM (inactive) | > 100 µM (inactive) | 41.8 µM (inactive) | > 100 µM (inactive) | > 100 µM (inactive) | > 100 µM (inactive) | > 100 µM (inactive) | > 100 µM (inactive) | > 100 µM (inactive) | > 100 µM (inactive) | 52.2 µM | > 100 µM (inactive) |  | > 100 µM (inactive) | 51.4 µM (inactive)
COc1ccc2nc3cccc(C(=O)NCCN(C)C)c3nc2c1 | 2.15 µM (inactive) | 1.85 µM (inactive) | 0.632 µM (active) | 1.37 µM (inactive) | 1.75 µM (inactive) | 2.57 µM (inactive) | 2 µM (inactive) | 2.73 µM (inactive) | 2.25 µM (inactive) | 2.67 µM (inactive) | 1.45 µM (inactive) | 1.41 µM (inactive) | 1.43 µM | 1.46 µM (inactive) | 0.824 µM (active) | 1.59 µM (inactive) | 
Cc1ccc(NC(=O)c2cc3cc(/N=N/c4ccc(Br)cc4)ccc3oc2=O)cc1 | > 100 µM (inactive) | > 100 µM (inactive) | > 100 µM (inactive) | 46.5 µM (inactive) | > 100 µM (inactive) | > 100 µM (inactive) | > 100 µM (inactive) | > 100 µM (inactive) | > 100 µM (inactive) |  | > 10 µM (inactive) | > 100 µM (inactive) | 46 µM |  | > 100 µM (inactive) | > 100 µM (inactive) | 
N#Cc1ccccc1NC(=O)C(=O)C(C(=O)c1ccccc1-c1ccccc1)C1OC(=O)c2ccccc21 (configuration not stated) | 14.6 µM (inactive) | 15.5 µM (inactive) | 33.3 µM (inactive) | 16 µM (inactive) | 21.1 µM (inactive) | 11.7 µM (inactive) | > 10 µM (inactive) | 7.73 µM (inactive) | 14.8 µM (inactive) | 23.5 µM (inactive) | 11.9 µM (inactive) | 11.8 µM (inactive) |  | 20.3 µM (inactive) | 11.7 µM (inactive) | 16 µM (inactive) | 18.4 µM (inactive)
N#Cc1nn(-c2ccc(Cl)cc2)c(=N)c2c(N)n3nc(-c4ccccc4)cc3nc12 | 1 µM (active) | < 0.01 µM (active) | 1 µM (active) | 1 µM (active) | 1 µM (active) | 0.556 µM (active) | > 100 µM (inactive) |  | 38.5 µM (inactive) | 0.546 µM (active) | 0.485 µM (active) | 0.83 µM (active) | 1 µM | 0.64 µM (active) | 1 µM (active) | 1 µM (active) | 1 µM (active)
COc1cc(/C=C2/C(=O)N(C(=O)OC(C)C)C(Cc3cc(OC)c(OC)c(C)c3OC)C(=O)N2Cc2ccccc2)c(OC)c(C)c1OC (configuration not stated) | 56 µM (inactive) | 38.4 µM (inactive) | 27.9 µM (inactive) | > 100 µM (inactive) | 27.2 µM (inactive) | 86.7 µM (inactive) | 35.6 µM (inactive) | 3.74 µM (inactive) | > 100 µM (inactive) | > 100 µM (inactive) | > 100 µM (inactive) | 13.2 µM (inactive) |  | 28.2 µM (inactive) | 6.58 µM (inactive) | 27.1 µM (inactive) | 13.1 µM (inactive)
Cc1c(C)c2ccc3oc4ccccc4c3c2oc1=O | 57.8 µM (inactive) | > 100 µM (inactive) | > 100 µM (inactive) | > 100 µM (inactive) | > 100 µM (inactive) | > 100 µM (inactive) | > 100 µM (inactive) | > 100 µM (inactive) | > 100 µM (inactive) | > 100 µM (inactive) | > 100 µM (inactive) | > 100 µM (inactive) | > 100 µM | > 100 µM (inactive) | > 100 µM (inactive) |  | > 100 µM (inactive)
C[n+]1c2ccccc2c(/C=N\NS(=O)(=O)c2ccc(Cl)cc2)c2ccccc21 | 39.4 µM (inactive) | > 100 µM (inactive) | 34 µM (inactive) | 67.5 µM (inactive) |  | 45.8 µM (inactive) | 74 µM (inactive) | 46.8 µM (inactive) | 51.9 µM (inactive) | 43 µM (inactive) | > 100 µM (inactive) | > 100 µM (inactive) | 35.9 µM | 40.3 µM (inactive) | 42.6 µM (inactive) | 46.7 µM (inactive) | 15.1 µM (inactive)
CC1(C)OC(=O)[C@@](C)([C@H](O)c2ccccc2)O1 | 65 µM (inactive) | 71 µM (inactive) | > 100 µM (inactive) | > 100 µM (inactive) |  | > 100 µM (inactive) | > 100 µM (inactive) | 67 µM (inactive) | > 100 µM (inactive) | 94.6 µM (inactive) | > 100 µM (inactive) | > 100 µM (inactive) |  | > 100 µM (inactive) |  | > 100 µM (inactive) | > 100 µM (inactive)
CCOCN1COCN/C1=N/C#N | > 100 µM (inactive) | > 100 µM (inactive) | > 100 µM (inactive) | > 100 µM (inactive) | 28.3 µM (inactive) | > 100 µM (inactive) | > 100 µM (inactive) | > 100 µM (inactive) | > 100 µM (inactive) | > 100 µM (inactive) | > 100 µM (inactive) | > 100 µM (inactive) | 58.5 µM | > 100 µM (inactive) |  | > 100 µM (inactive) | 
CCC(=O)OC1CCn2c1nc1c2C(=O)C(C)=C(NC(C)=O)C1=O (configuration not stated) | 5.01 µM (inactive) | 2.31 µM (inactive) | 1.69 µM (inactive) | 1.84 µM (inactive) | 3.52 µM (inactive) | 2.08 µM (inactive) | 5.12 µM (inactive) | 1.54 µM (inactive) | 3.48 µM (inactive) | 2.19 µM (inactive) | 11.7 µM (inactive) | 1.76 µM (inactive) |  | 0.641 µM (active) | 1.93 µM (inactive) | 1.89 µM (inactive) | 0.736 µM (active)
COc1cccc(/C=C\c2cc(OC)c(OC)c(OC)c2)c1 | 0.652 µM (active) | 3.94 µM (inactive) | 0.423 µM (active) | 0.49 µM (active) | 0.807 µM (active) | 0.407 µM (active) |  | 0.375 µM (active) | 0.575 µM (active) | 3.15 µM (inactive) | 1.51 µM (inactive) | 1.32 µM (inactive) | 0.693 µM | 3.49 µM (inactive) | 0.845 µM (active) |  | 1.21 µM (inactive)
